Usually IC50 stands for the concentration that inhibits the measured activity by half. Broadly, the inhibition in vivo is the share of the control response that was lost under treatment. Higher therefore signals a strong effect. One may read the inhibition as the drop in the measured response relative to a control, in per cent.

For assay [1], the target named is human recombinant FGFR1 (Homo sapiens, UniProt P11362). As to the kind of experiment: FGFR1 enzyme assay (LabChip EZ Reader).
Procedure: (§1) The compound was diluted with a solution of dimethyl sulfoxide (DMSO) (10-fold common ratio, 4 portions) before dilution with a reaction buffer (100 mM HEPES (pH7.5), 0.003% Brij-35, 0.004% Tween 20, 0.5 mM DTT, and 10 mM MgCl2) so that the final DMSO concentration was 2%. To 4 μL of the compound solution in a 384-well plate, 2 μL each of FGFR1 enzyme (2 or 3 ng/μL), FGFR2 enzyme (2 ng/μL), or FGFR3 enzyme (6 ng/μL) which were diluted with the reaction buffer was added. […] After the reaction was stopped, the reaction mixture was measured with a LabChip EZ Reader. The IC50 values were calculated by non-linear regression based on the inhibition rates obtained.
Assay [2] has as its system FGFR3_S249C/NIH3T3 cells. Description: Growth assay of cells with forced expression of mutant FGFR3. The note with it: Mus musculus, NIH3T3, 120 h; 5 days after addition, CellTiter-Glo; read-out: IC50 (growth inhibition). Format: cell-based. How it is done:
FGFR3_S249C/NIH3T3 cells were added to a 96-well spheroid plate (U bottom) at a concentration of 3000 cells/well/90 μL, and the compound solution (10 μL) was added thereto on the next day (final DMSO concentration: 0.1%). The compound solution was prepared by serially diluting the compound with DMSO at a 3-fold common ratio (9 portions and DMSO only) from the maximum concentration of 10 mM and then diluted 100-fold with a culture medium (D-MEM, 10% FBS). 5 days after the addition of the compound, the growth inhibition caused by the compound was evaluated by Promega (G7573) CellTiter-Glo™ Luminescent Cell Viability Assay.
On the technique in general: ATP-based viability assays read luminescence as a measure of living cells.

Assay [3] addresses human recombinant FGFR3 (Homo sapiens, UniProt P22607). Description: FGFR3 enzyme assay (LabChip EZ Reader).
Procedure: as §1
For assay [4], the system named is UM-UC-14 (FGFR3_S249C-positive cells, bladder cancer). Description: Antitumor test on UM-UC-14 subcutaneous xenograft. It is filed as in vivo, nude mice. The note with it: oral, once a day; for inhibition in vivo at 1 mg/kg/day / Antitumor Activity, % regression: 1 mg/kg/day; for Antitumor Activity, % regression: tumor volume at Day 11 vs Day 1. How it is done: 3×10^6 UM-UC-14 cells per 0.1 mL (PBS+matrigel, 1:1) were inoculated subcutaneously into the right flank of nude mice (CAnN, Cg-Foxn1nu/CrlCrlj (nu/nu), male, 4- to 5-week-old), and when their tumor size reached about 250 mm^3, drug administration was started (Day 1). The drug was administered once a day and the tumor size was measured with a caliper and the body weight was also measured every two or three days. The antitumor effect was finally determined based on the tumor volume (mm^3; minor axis (mm)×minor axis (mm)×major axis (mm)/2) at Day 11 (n=3-5). To the control group, 0.5% MC (methyl cellulose) was administered. […] “% regression” indicates what percentage of regression could be achieved compared with the tumor volume at Day 1. Here, the tumor volume at Day 1 means tumor volume immediately before drug administration.

For assay [5], the system named is FGFR3-TACC3_v1 (N-FLAG) fusion polypeptide. As to the kind of experiment: In vitro kinase activity inhibition (HTRF KinEASE-TK). The note with it: 100 μM ATP. Format: biochemical, human. On the technique in general: Time-resolved FRET reads energy transfer from a long-lived donor to a nearby acceptor.
The subject of assay [6] is FGFR3-TACC3_v3 (N-FLAG) fusion polypeptide. The description is as above. Format: biochemical, human. The note with it: 100 μM ATP.
Assay [7] concerns FGFR3-TACC3_v2 (N-FLAG) fusion polypeptide. The description is as above. Format: biochemical, human. The following applies: 100 μM ATP.
Assay [8] deals with FGFR3-TACC3_v4-expressing NIH3T3 cells. As to the kind of experiment: Anchorage-independent cell growth inhibition, spheroid plate. The following applies: Mus musculus, NIH3T3, 96 h, 4 days, read-out: growth inhibition rate v4; for inhibition at 0.001 µM: 1 nM; for inhibition at 0.01 µM: 10 nM. Format: cell-based. From the text: Measurement for anchorage-independent cell growth (colony method, etc.) is known to be a system for investigating the anticancer action (pharmacological effect) of compounds (Clinical Oncology, second edition, Cancer and Chemotherapy Publishers Inc.). As a method for measuring the non-adhesive growth of cells, there is the following method using a spheroid plate as referred to above in place of the colony method.
In a 96-well spheroid plate (Sumilon Celltight Spheroid 96U; Sumitomo Bakelite), FGFR3-TACC3_v1-expressing NIH3T3 cells, FGFR3-TACC3_v2-expressing NIH3T3 cells, FGFR3-TACC3_v3-expressing NIH3T3 cells, and FGFR3-TACC3_v4-expressing NIH3T3 cells were each seeded at 1×10^3 cells per well in D-MEM media (Invitrogen) containing 10% fetal bovine serum. […] A well supplemented with only medium was also prepared for a positive control. Culturing was performed overnight in the presence of 5% CO2 at 37° C. followed by addition of test compounds (final concentrations: 100 nM, 10 nM, and 1 nM). As a negative control, DMSO used as a solvent for the compounds was added at the same concentration (0.1%) as in the case of addition of the compounds. Then, culturing was performed in the presence of 5% CO2 at 37° C. for 4 days, and a cell counting reagent (CellTiter-Glo™ Luminescent Cell Viability Assay; Promega) was added and the resulting mixture was stirred for 20 minutes followed by measurement with a luminometer.

For assay [9], the system named is bladder cancer patient-derived cell line RT4. The assay is described as above. It is filed as cell-based. The following applies: Homo sapiens, 96 h, 4 days, read-out: growth inhibition rate RT4; for inhibition at 0.001 µM: 1 nM; for inhibition at 0.01 µM: 10 nM; for inhibition at 0.1 µM: 100 nM.
Assay [10] has as its system FGFR3-BAIAP2L1-expressing NIH3T3 cells. The assay is described as above. Format: cell-based. The following applies: Mus musculus, NIH3T3, 96 h, 4 days, read-out: growth inhibition rate FGFR3-BAIAP2L1-expressing NIH3T3 Cells; for inhibition at 0.001 µM: 1 nM; for inhibition at 0.01 µM: 10 nM. The procedure:
In a 96-well spheroid plate (Sumilon Celltight Spheroid 96U; Sumitomo Bakelite), FGFR3-BAIAP2L1-expressing NIH3T3 cells were seeded at 1×10^3 cells per well in D-MEM medium containing 10% fetal bovine serum. A well supplemented with only medium was also prepared for a positive control. Culturing was performed overnight in the presence of 5% CO2 at 37° C. followed by addition of test compounds (final concentrations: 100 nM, 10 nM, and 1 nM). As a negative control, DMSO used as a solvent for the compounds was added at the same concentration (0.1%) as in the case of addition of the compounds. Then, culturing was performed in the presence of 5% CO2 at 37° C. for 4 days, and a cell counting reagent (CellTiter-Glo™ Luminescent Cell Viability Assay; Promega) was added and the resulting mixture was stirred for 20 minutes followed by measurement with a luminometer.

Assay [11] deals with human recombinant FGFR2 (Homo sapiens, UniProt P21802). Description: FGFR2 enzyme assay (LabChip EZ Reader).
Chain of human recombinant FGFR2 (P21802 22-821): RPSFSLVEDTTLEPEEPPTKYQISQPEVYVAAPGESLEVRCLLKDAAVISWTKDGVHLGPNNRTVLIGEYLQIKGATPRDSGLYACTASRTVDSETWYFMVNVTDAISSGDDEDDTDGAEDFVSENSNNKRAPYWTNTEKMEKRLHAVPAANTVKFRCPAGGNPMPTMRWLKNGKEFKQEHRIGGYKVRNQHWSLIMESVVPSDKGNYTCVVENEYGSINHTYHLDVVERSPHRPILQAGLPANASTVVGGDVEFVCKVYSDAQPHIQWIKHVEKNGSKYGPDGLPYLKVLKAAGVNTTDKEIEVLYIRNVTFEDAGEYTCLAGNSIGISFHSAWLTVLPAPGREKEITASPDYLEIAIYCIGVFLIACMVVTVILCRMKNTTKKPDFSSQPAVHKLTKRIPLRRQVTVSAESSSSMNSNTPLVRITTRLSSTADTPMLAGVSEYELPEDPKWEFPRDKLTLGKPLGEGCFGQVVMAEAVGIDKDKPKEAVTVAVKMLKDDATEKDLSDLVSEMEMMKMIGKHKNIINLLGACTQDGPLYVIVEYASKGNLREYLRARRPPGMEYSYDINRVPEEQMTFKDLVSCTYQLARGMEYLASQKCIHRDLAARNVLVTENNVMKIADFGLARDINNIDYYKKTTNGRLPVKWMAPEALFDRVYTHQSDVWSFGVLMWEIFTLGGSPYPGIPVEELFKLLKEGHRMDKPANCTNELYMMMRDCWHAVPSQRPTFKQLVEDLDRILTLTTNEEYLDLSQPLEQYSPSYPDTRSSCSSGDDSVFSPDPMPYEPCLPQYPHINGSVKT
Procedure: as §1
Setting [12] is: Mus musculus, UMUC14, 264 h, tumor volume at Day 11.

Chain of human recombinant FGFR3 (P22607 23-806): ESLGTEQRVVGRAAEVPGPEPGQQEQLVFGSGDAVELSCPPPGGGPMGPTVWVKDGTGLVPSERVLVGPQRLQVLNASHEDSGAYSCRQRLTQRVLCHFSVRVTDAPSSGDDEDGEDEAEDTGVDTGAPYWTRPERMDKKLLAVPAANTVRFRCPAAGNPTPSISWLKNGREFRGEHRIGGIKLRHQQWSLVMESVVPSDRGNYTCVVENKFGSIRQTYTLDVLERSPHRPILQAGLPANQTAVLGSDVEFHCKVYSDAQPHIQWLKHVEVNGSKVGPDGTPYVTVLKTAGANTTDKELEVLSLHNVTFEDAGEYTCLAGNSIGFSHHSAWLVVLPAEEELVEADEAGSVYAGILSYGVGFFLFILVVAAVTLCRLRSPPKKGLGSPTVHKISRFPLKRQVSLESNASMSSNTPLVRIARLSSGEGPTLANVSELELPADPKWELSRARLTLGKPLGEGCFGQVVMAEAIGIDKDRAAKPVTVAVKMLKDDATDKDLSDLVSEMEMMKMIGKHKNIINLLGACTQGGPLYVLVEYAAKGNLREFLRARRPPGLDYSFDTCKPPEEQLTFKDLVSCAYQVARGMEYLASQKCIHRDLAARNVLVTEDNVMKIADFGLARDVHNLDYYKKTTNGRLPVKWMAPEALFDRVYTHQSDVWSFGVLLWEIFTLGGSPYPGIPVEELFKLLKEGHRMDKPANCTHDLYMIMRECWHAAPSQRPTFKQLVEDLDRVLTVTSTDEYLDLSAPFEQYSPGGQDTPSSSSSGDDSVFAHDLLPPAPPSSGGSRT
Chain of human recombinant FGFR1 (P11362 22-822): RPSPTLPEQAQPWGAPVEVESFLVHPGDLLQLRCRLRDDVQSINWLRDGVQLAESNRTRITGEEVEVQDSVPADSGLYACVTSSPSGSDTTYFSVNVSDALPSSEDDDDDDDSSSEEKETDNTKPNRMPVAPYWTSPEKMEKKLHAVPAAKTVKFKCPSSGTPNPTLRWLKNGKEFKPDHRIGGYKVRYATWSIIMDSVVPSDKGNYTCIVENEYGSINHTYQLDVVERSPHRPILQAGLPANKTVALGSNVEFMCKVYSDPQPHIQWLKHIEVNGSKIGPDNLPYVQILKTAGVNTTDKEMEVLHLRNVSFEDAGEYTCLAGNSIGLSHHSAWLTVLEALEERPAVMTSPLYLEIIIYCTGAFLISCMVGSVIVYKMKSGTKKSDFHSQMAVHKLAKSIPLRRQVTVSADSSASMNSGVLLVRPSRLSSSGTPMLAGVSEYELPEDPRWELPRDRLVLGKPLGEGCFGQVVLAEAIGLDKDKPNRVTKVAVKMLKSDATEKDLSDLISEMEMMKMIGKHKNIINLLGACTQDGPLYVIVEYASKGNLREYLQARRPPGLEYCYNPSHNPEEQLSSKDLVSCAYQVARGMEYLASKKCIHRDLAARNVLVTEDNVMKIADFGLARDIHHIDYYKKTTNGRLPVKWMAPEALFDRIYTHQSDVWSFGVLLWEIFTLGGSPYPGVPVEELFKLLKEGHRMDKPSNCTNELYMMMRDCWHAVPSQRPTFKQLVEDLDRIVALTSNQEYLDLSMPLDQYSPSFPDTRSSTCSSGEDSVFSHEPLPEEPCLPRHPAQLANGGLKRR

Consider `COc1cc(OC)c(F)c(CCc2cnc(Nc3ccc(N4CCC(N5CCN(C)CC5)CC4)c(F)c3)nc2)c1F` [Example 33], for which the half-maximal inhibitory concentration (IC50) in assay [1] turned out to be 2 nM; in [2] it was 26 nM; in [3], 2 nM. Besides, the inhibition in vivo at 1 mg/kg/day in assay [4] (setting [12]) worked out at 70%.
With `COc1cc(OC)c(F)c(COc2cnc(Nc3cnn(CCN4CCN(C)CC4)c3)nc2)c1F` [Example 114], the IC50 in assay [1] is 2 nM; in [2], 7 nM; in assay [3], 1 nM. For the same molecule, the “Antitumor Activity, % regression” value in assay [4] came to 33%.
For the molecule `COc1cc(OC)c(F)c(COc2cnc(Nc3cc(CN4CCN(C)CC4)n(C)n3)nc2)c1F` [Example 248], the results for the “rate of inhibiting kinase activity v1” value in assay [5] (1 nM), in assay [5] (10 nM) and in [5] (100 nM) were 7%, 40% and 86%, respectively. In addition, the IC50 in [1] was determined as 4 nM; in assay [2], 50 nM; in assay [3], 5 nM. The “rate of inhibiting kinase activity v3” value in assay [6] (1 nM) worked out at 30%; in assay [6] (10 nM), 55%; in assay [6] (100 nM) it was 91%. Moreover, the “rate of inhibiting kinase activity v2” value in [7] (1 nM) turned out to be 6%; in [7] (10 nM) it was 25%; in assay [7] (100 nM) it was 78%. For the same molecule, in assay [4] (setting [12]), the inhibition in vivo at 1 mg/kg/day came to 95%. Moreover, the results for the inhibition at 0.001 µM in [8], in assay [9] and in [10] were -5%, 3% and -3%, respectively. For the same molecule, the values for the inhibition at 0.01 µM in [8], in assay [9] and in assay [10] were 26%, 10% and 19%, respectively. Further, the inhibition at 0.1 µM is 83% in assay [8] (100 nM), 43% in [9] and 82% in assay [10] (100 nM).
For `COc1cc(OC)c(F)c(COc2cnc(Nc3cnn(CC(=O)N4CC(O)C4)c3)nc2)c1F` [Example 115], the IC50 in assay [1] was found to be 2 nM; in [2] it was 36 nM; in assay [3], 2 nM. Further, in assay [4] (setting [12]), the inhibition in vivo at 1 mg/kg/day was 70%.
As to `COc1cc(Nc2ncc(OCc3c(F)c(OC)cc(OC)c3F)cn2)ccc1N1C[C@@H](C)N[C@@H](C)C1` [Example 92], the figures for the IC50 in [11], in assay [2] and in assay [3] were 2 nM, 7 nM and 1 nM, respectively. This molecule also returned an inhibition in vivo at 1 mg/kg/day in assay [4] (setting [12]) of 49%.
Turning to `COc1cc(OC)c(Cl)c(COc2cnc(Nc3cnn(C4CCNCC4)c3)nc2)c1Cl` [Example 72], the IC50 in assay [11] was determined as 2 nM; in assay [2], 24 nM; in assay [3], 2 nM. Further, the inhibition in vivo at 1 mg/kg/day in assay [4] (setting [12]) turned out to be 30%.
With `COc1cc(OC)c(F)c(COc2cnc(Nc3cnn(C[C@@H](O)CO)c3)nc2)c1F` [Example 116], the figures for the “rate of inhibiting kinase activity v1” value in assay [5] (10 nM) and in [5] (100 nM) were 79% and 95%, respectively. Also, the results for the 50% inhibitory concentration (IC50) in assay [1], in [2] and in assay [3] were 1 nM, 8 nM and 2 nM, respectively. The “rate of inhibiting kinase activity v3” value came to 41% in assay [6] (1 nM) and 96% in [6] (100 nM). Besides, the “rate of inhibiting kinase activity v2” value in assay [7] (1 nM) is 22%; in [7] (10 nM) it was 73%; in [7] (100 nM) it was 95%. For the same molecule, in [4], the “Antitumor Activity, % regression” value was determined as 54%. In addition, the inhibition at 0.001 µM in assay [8] came out at 11%; in assay [9], 8%; in assay [10], 15%. Moreover, the results for the inhibition at 0.01 µM in assay [8], in assay [9] and in [10] were 70%, 39% and 74%, respectively. Further, the inhibition at 0.1 µM in assay [9] came out at 63%.
As to `COc1cc(Nc2ncc(OCc3c(F)c(OC)cc(OC)c3F)cn2)ccc1N1CCN(C)CC1` [Example 57], the IC50 in assay [1] came to 1 nM.
For the molecule `COc1cc(Nc2ncc(OCc3c(F)c(OC)cc(OC)c3F)cn2)ccc1N1CCC2(CCNCC2)CC1` [Example 95], the IC50 in assay [2] is 57 nM; in [3], 2 nM. Besides, the inhibition in vivo at 3 mg/kg/day in assay [4] (Mus musculus, UMUC14, 264 h, 3 mg/kg/day, tumor volume at Day 11) stood at 97%.
With `COc1cc(Nc2ncc(OCc3c(F)c(OC)cc(OC)c3F)cn2)ccc1N1CCN(C2CCN(C)CC2)CC1` [Example 84], the half-inhibitory concentration (IC50) in assay [1] is 2 nM; in assay [11], 2 nM; in [2] it was 16 nM; in [3] it was 1 nM. The “Antitumor Activity, % regression” value in assay [4] was 34%.
Take `COc1cc(OC)c(Cl)c(COc2cnc(Nc3cnn(C4CCN(C)CC4)c3)nc2)c1Cl` [Example 71]: the half-inhibitory concentration (IC50) was determined as 2 nM in assay [1], 10 nM in assay [2] and 2 nM in [3]. The inhibition in vivo at 1 mg/kg/day in assay [4] (setting [12]) turned out to be 50%.
`COc1cc(OC)c(F)c(COc2cnc(Nc3cnn(C[C@H](O)CO)c3)nc2)c1F` [Ex 11]: the IC50 was found to be 1 nM in assay [1], 13 nM in [2] and 2 nM in assay [3].
In the case of `COc1cc(Nc2ncc(CCc3c(F)c(OC)cc(OC)c3F)cn2)ccc1N1CCN(C)CC1` [Ex 7], the IC50 in [1] amounted to 2 nM.

Source of the values: patent US9464077B2, “Nitrogen-containing aromatic heterocyclic compound” (Astellas Pharma Inc., priority 2012, dated 2016).
